Source: patent US20130172346A1, “USE OF KYNURENIC ACID AMIDE DERIVATIVES FOR THE TREATMENT OF HUNTINGTON'S DISEASE” (priority 2010, published 2013)
“Also recorded” adds a separate entry of the source.

How the values were obtained:
N171-82Q transgenic mice [1] = assay: Survival test in N171-82Q transgenic mouse model of Huntington's disease; format: in vivo; settings: p=0.016
Excerpt: (§1) The transgenic N171-82Q mice were originally obtained from Jackson Laboratories (Bar Harbor, Me., United States), later we have propagated them in our laboratories by using B6C3F1 background strains. The progeny were genotyped by PCR technique from tail-DNA. The animals were kept in transgenic cages under standard laboratory conditions (up to 5 animals/cage), and had free access to water and food. Male and female transgenic and wild type animals respectively, were equally allotted to the individual test groups. The transgenic animals were injected intraperitoneally (5 ml/kg of body weight) every day at the same time with 2-(2-N,N-dimethylaminoethylamino-1-carbonyl)-1H-quinolin-4-one hydrochloride (at a dose of 100 mg/kg of body weight, dissolved in distilled water, pH was adjusted to 6.5 with 1N NaOH). The control transgenic and wild animals, respectively obtained a salt solution comprising 0.1 M of phosphate buffer (PBS) (5 ml/kg of body weight). The animals were inoculated in the first 5 days of the week starting from the age of 7 weeks.
The transgenic animals were inoculated as disclosed above with 2-(2-N,N-dimethylamino-ethylamino-1-carbonyl)-1H-quinolin-4-one hydrochloride (n=10), and the transgenic animals serving as a control, were inoculated with 0.1 M PBS (n=10) until the animals perished. As negative control wild type animals, treated with 0.1M PBS were used (n=10).
(§2) The statistical analysis of our data was performed by using Statistica software (StatSoft Inc., (2008) STATISTICA version 8.0.; www.statsoft.com). The analysis of the survival data was carried out by Kaplan-Meyer survival curves and Mantel-Cox log rank test. The normality of the data of the open-field test, the body weight measurement and the striatal cell volume measurement was first examined by Shapiro-Wilk W test. […] The significance level was determined at p<0.05. In case of normal distribution an average±S.E.M and in case of non-normal distribution the median and the interquartile range were used in order to depict the data

N171-82Q transgenic mice [2] = assay: Open-field test for examining motor activity (covered distance); format: in vivo, mouse
Excerpt: as §1
A test method almost identical with the method disclosed for the survival test was used with the exception of the number of animals (n=9, n=8, n=8 corresponding to the above group assignment). The spontaneous motor activity of the mice was tested once a week 2 hours after the given daily inoculation, always at the same day of the week. The animals stayed in the test unit (48×48×40 cm box open from above) for 5 minutes, the motor parameters were registered by the aid of Conducta 1.0 software (Experimetria Ltd., Budapest, Hungary). In order to characterize the motor activity, the parameter of the covered distance was selected and the data of the examined 9 weeks (between the age of 7 and 15 weeks) were evaluated as follows: an average of the first, second, third 3 weeks was calculated for each test group and the three test groups were compared according to the obtained average values.
as §2

N171-82Q transgenic mice [3] = assay: Body weight measurements; format: in vivo, mouse; settings: 100 mg/kg i.p., weekly measurement from age of 7 weeks; p=0.00022
Excerpt: as §1
(§3) The body weight of the animals was measured once a week, always at the same day of the week and at the same time of the day, starting from the age of 7 weeks. […]

[4] = test system: neurons of the striatum of N171-82Q transgenic mice; assay: Immunohistochemistry with cell volume estimation of striatal neurons; format: in vivo, mouse; settings: 100 mg/kg i.p.
Excerpt: as §1, §3

[5] = cited from earlier work
[6] = test system: organic anion transporters; settings: mediated by organic anion transporters; cited from earlier work

## CN(C)CCNC(=O)c1cc(=O)c2ccccc2[nH]1.Cl [2-(2-N,N-dimethylaminoethylamino-1-carbonyl)-1H-quinolin-4-one hydrochloride]
N171-82Q transgenic mice [1]; N171-82Q transgenic mice, intraperitoneal, chronic, 100 mg/kg, n=10, control transgenic 111.3±6.6 days
  average survival time: 145.5 ± 12.0 days
N171-82Q transgenic mice [1]; N171-82Q transgenic mice, FIG. 1
  survival compared to the control groups (Kaplan-Meier): significantly increased
N171-82Q transgenic mice [1]; vs control transgenic animals, intraperitoneal, chronic, 100 mg/kg
  improvement of average survival time: 30.7%
N171-82Q transgenic mice [2]; 100 mg/kg i.p., last 3 weeks of treatment, p=0.0094
  covered distance, last 3 weeks: significant improvement
N171-82Q transgenic mice [2]; 100 mg/kg i.p., second 3 weeks
  covered distance, second 3 weeks: positive changes
N171-82Q transgenic mice [2]; 5 minutes, 2 hours after daily inoculation, 100 mg/kg i.p., first 3 weeks (from age of 7 weeks)
  covered distance, first 3 weeks: has not improved
N171-82Q transgenic mice [2]; N171-82Q transgenic mice, FIG. 2
  covered distance in progress of time: significant improvement
N171-82Q transgenic mice [3]
  body weight compared to the control transgenic animals: significantly increased
[4]; treated transgenic animals at age of 16 weeks, interquartile range 716.2-787.4, untreated transgenic 663.4, wild type 739.0
  size (volume) of the neurons in the striatum: 744.5 μm^3
[4]; treated vs untreated N171-82Q transgenic animals, hydrochloride, 100 mg/kg
  atrophy of the neurons in the striatum: successfully prevented the atrophy; also recorded: prevented the development of atrophy

## O=C(O)c1cc(=O)c2ccccc2[nH]1 [KYNA, kynurenic acid]
[5]
  solubility: poor
[6]
  elimination from the brain and organism: rapidly eliminated
